Results published in US20230407243A1, “GENETIC PLATFORM TO INVESTIGATE THE FUNCTIONS OF BACTERIAL DRUG EFFLUX PUMPS” (priority 2022, published 2023).
Several values for one entry are separate records, joined by “and”; a condition that tells them apart may be missing. Identical values can stand only once.

What was measured:
Format in all cases: cell-based, Escherichia coli
[1] = tested on: EKO-35 rspA (pCA24N); test: MIC of strains harboring ASKA plasmids; details: 0.1 mM IPTG; for MIC, EKO-35 rspA (pCA24N), Chlor +: 4 μg/mL chloramphenicol selection; for MIC, EKO-35 rspA (pCA24N), Chlor −: no plasmid selection; for MIC: EKO-35 rspA
[2] = tested on: EKO-35 tufA (pCA24N); test: MIC of strains harboring ASKA plasmids; details: 0.1 mM IPTG; for MIC, EKO-35 tufA (pCA24N), Chlor +: 4 μg/mL chloramphenicol selection; for MIC, EKO-35 tufA (pCA24N), Chlor −: no plasmid selection; for MIC: EKO-35 tufA
[3] = tested on: EKO-35 yjfC (pCA24N); test: MIC of strains harboring ASKA plasmids; details: 0.1 mM IPTG; for MIC, EKO-35 yjfC (pCA24N), Chlor +: 4 μg/mL chloramphenicol selection; for MIC, EKO-35 yjfC (pCA24N), Chlor −: no plasmid selection; for MIC: EKO-35 yjfC
[4] = tested on: EKO-35 porinated strain expressing acrD; test: Checkerboard synergy (FICI), porinated strain
In short: (§1)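 MHB II, CLSI microdilution checkerboard, colony-resuspension inoculum, solvent controls per plate. MIC = no growth at OD600. FICI summed from FIC of PAβN/NMP and antibiotic; <0.5 synergistic, >2.0 antagonistic.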

[5] = tested on: EKO-35 porinated strain expressing acrF (AcrEF); test: Checkerboard synergy (FICI), porinated strain; details: for PABN MICa Alone: PAβN alone, one value per checkerboard
In short: as §1

[6] = tested on: EKO-35-Pore strains producing other efflux pumps; test: Checkerboard synergy (FICI), porinated strain
In short: as §1

[7] = EKO-35 acrEF Pore, NMP + antibiotic
[8] = EKO-35 acrEF Pore, PAβN + antibiotic
[9] = EKO-35 acrEF Pore, antibiotic alone (PAβN checkerboard)
[10] = EKO-35 acrEF Pore, antibiotic in combination with PAβN
[11] = strain EKO-35 acrEF Pore, NMP + antibiotic
[12] = strain EKO-35 acrEF Pore, antibiotic alone
[13] = strain EKO-35 acrEF Pore, antibiotic in combination with NMP
[14] = EKO-35 mdtEF Pore, NMP + antibiotic
[15] = EKO-35 mdtEF Pore, PAβN + antibiotic
[16] = EKO-35 mdtEF Pore, antibiotic alone (PAβN checkerboard)
[17] = EKO-35 mdtEF Pore, antibiotic in combination with PAβN
[18] = strain EKO-35 mdtEF Pore, NMP + antibiotic
[19] = strain EKO-35 mdtEF Pore, antibiotic alone
[20] = strain EKO-35 mdtEF Pore, antibiotic in combination with NMP
[21] = EKO-35 acrD Pore, PAβN + antibiotic
[22] = strain EKO-35 acrD Pore, NMP + antibiotic

N#Cc1ccc(-c2c(NC(=O)C(Cl)Cl)oc(-c3cccs3)c2C#N)cc1 [compound 2]
MIC, EKO-35 rspA (pCA24N), Chlor + [1]: >5 μg/mL | MIC, EKO-35 rspA (pCA24N), Chlor − [1]: >5 μg/mL | MIC, EKO-35 tufA (pCA24N), Chlor + [2]: >5 μg/mL | MIC, EKO-35 tufA (pCA24N), Chlor − [2]: >5 μg/mL | MIC, EKO-35 yjfC (pCA24N), Chlor + [3]: >5 μg/mL | MIC, EKO-35 yjfC (pCA24N), Chlor − [3]: >5 μg/mL

Cn1cc(Br)c(-c2cccc(NC(=O)Nc3ccc(OC(F)(F)F)cc3)c2)n1 [compound 14]
MIC, EKO-35 rspA (pCA24N), Chlor + [1]: >5 μg/mL | MIC, EKO-35 rspA (pCA24N), Chlor − [1]: >5 μg/mL | MIC, EKO-35 tufA (pCA24N), Chlor + [2]: >5 μg/mL | MIC, EKO-35 tufA (pCA24N), Chlor − [2]: >5 μg/mL | MIC, EKO-35 yjfC (pCA24N), Chlor + [3]: >5 μg/mL | MIC, EKO-35 yjfC (pCA24N), Chlor − [3]: >5 μg/mL

O=C(Nc1ccccc1C(=O)Nc1nnc(C(F)(F)F)s1)c1ccccc1Cl [compound 19]
MIC, EKO-35 rspA (pCA24N), Chlor + [1]: >5 μg/mL | MIC, EKO-35 rspA (pCA24N), Chlor − [1]: >5 μg/mL | MIC, EKO-35 tufA (pCA24N), Chlor + [2]: >5 μg/mL | MIC, EKO-35 tufA (pCA24N), Chlor − [2]: >5 μg/mL | MIC, EKO-35 yjfC (pCA24N), Chlor + [3]: >5 μg/mL | MIC, EKO-35 yjfC (pCA24N), Chlor − [3]: >5 μg/mL

CC[C@H]1OC(=O)[C@H](C)[C@@H](O[C@H]2C[C@@](C)(OC)[C@@H](O)[C@H](C)O2)[C@H](C)[C@@H](O[C@@H]2O[C@H](C)C[C@H](N(C)C)[C@H]2O)[C@](C)(O)C[C@@H](C)C(=O)[C@H](C)[C@@H](O)[C@]1(C)O [erythromycin]
interaction of PAβN in combination with the labelled antibiotic (FICI) ([4]; acrD expressed in the porinated strain): still observed | Effect [5, 7]: Additive | FICI [5, 7]: 0.750 | Effect [5, 8]: Synergistic | FICI [5, 8]: 0.385 | MICb Alone [5, 9]: 0.5 µg/mL | MICb Combined [5, 10]: 0.13 µg/mL | Effect [5, 11]: Additive (additive (FICI >0.5-1.0)) | FICI [5, 11]: 0.750 | MICb Alone [5, 12]: 1 µg/mL | MICb Combined [5, 13]: 0.5 µg/mL | Effect [6, 14]: Additive | Effect [6, 15]: Synergistic | FICI [6, 15]: 0.185 | MICb Alone [6, 16]: 1 µg/mL | MICb Combined [6, 17]: 0.06 µg/mL | Effect [6, 18]: Additive (additive (FICI >0.5-1.0)) | MICb Alone [6, 19]: 8 µg/mL | MICb Combined [6, 20]: 1 µg/mL

CC(=O)O[C@H]1C[C@@]2(C)[C@@H](C[C@@H](O)[C@H]3[C@@]4(C)CC[C@@H](O)[C@@H](C)[C@@H]4CC[C@@]32C)/C1=C(\CCC=C(C)C)C(=O)O [fusidic acid]
FICI ([4]; EKO-35 acrD Pore, NMP + antibiotic): 1.000 | Effect [4, 21]: Synergistic | FICI [4, 21]: 0.250 | MICb Alone ([4]; EKO-35 acrD Pore, antibiotic alone (PAβN checkerboard)): 64 µg/mL | MICb Combined ([4]; EKO-35 acrD Pore, antibiotic in combination with PAβN): 8 µg/mL | Effect [4, 22]: — (indifferent (FICI >1.0)) | FICI [4, 22]: 1.000 | MICb Alone ([4]; strain EKO-35 acrD Pore, antibiotic alone): 64 µg/mL | MICb Combined ([4]; strain EKO-35 acrD Pore, antibiotic in combination with NMP): 32 µg/mL | Effect [5, 7]: Additive | Effect [5, 8]: Synergistic | FICI [5, 8]: 0.313 | MICb Alone [5, 9]: 4 µg/mL | MICb Combined [5, 10]: 1 µg/mL | Effect [5, 11]: Additive (additive (FICI >0.5-1.0)) | MICb Alone [5, 12]: 2 µg/mL | MICb Combined [5, 13]: 1 µg/mL | Effect [6, 14]: Additive | FICI [6, 14]: 0.750 | Effect [6, 15]: Synergistic | FICI [6, 15]: 0.250 | MICb Alone [6, 16]: 16 µg/mL | MICb Combined [6, 17]: 2 µg/mL | Effect [6, 18]: Additive (additive (FICI >0.5-1.0)) | FICI [6, 18]: 0.750 | MICb Alone [6, 19]: 8 µg/mL | MICb Combined [6, 20]: 2 µg/mL

COc1cc(Cc2cnc(N)nc2N)cc(OC)c1OC [trimethoprim]
MIC ([3]; Chlor + (4 μg/mL)): 0.391 µg/mL

benzalkonium chloride
MIC ([1]; Chlor + (4 μg/mL)): 0.781 µg/mL | MIC ([1]; Chlor −): 0.781 µg/mL | MIC ([2]; Chlor + (4 μg/mL)): 0.781 µg/mL | MIC ([2]; Chlor −): 0.781 µg/mL | MIC ([3]; Chlor + (4 μg/mL)): 0.781 µg/mL | MIC ([3]; Chlor −): 0.781 µg/mL

phenylalanine-arginine-β-naphthylamide [PAβN]
PABN MICa Alone ([4]; EKO-35 acrD Pore, PAβN alone, one value per checkerboard, listed as PABN): 32 µg/mL and 64 µg/mL | PABN MICa Combined ([4]; EKO-35 acrD Pore, with Fusidic Acid): 8 µg/mL | PABN MICa Combined ([4]; EKO-35 acrD Pore, with Novobiocin): 16 µg/mL | PABN MICa Combined ([4]; EKO-35 acrD Pore, with Oxacillin): 16 µg/mL | PABN MICa Alone ([5]; EKO-35 acrEF Pore): 64 µg/mL | PABN MICa Alone ([5]; EKO-35 acrEF Pore, listed as PABN): 128 µg/mL | PABN MICa Combined ([5]; EKO-35 acrEF Pore, with Ciprofloxacin): 16 µg/mL | PABN MICa Combined ([5]; EKO-35 acrEF Pore, with Erythromycin): 16 µg/mL | PABN MICa Combined ([5]; EKO-35 acrEF Pore, with Fusidic Acid): 8 µg/mL | PABN MICa Combined ([5]; EKO-35 acrEF Pore, with Oxacillin): 32 µg/mL | PABN MICa Alone ([6]; EKO-35 mdtEF Pore, PAβN alone, one value per checkerboard): 64 µg/mL | PABN MICa Combined ([6]; EKO-35 mdtEF Pore, with Erythromycin): 32 µg/mL | PABN MICa Combined ([6]; EKO-35 mdtEF Pore, with Fusidic Acid): 8 µg/mL
